Assay results: ChEMBL document CHEMBL3232833, “5,10-seco-neo-clerodanes and neo-clerodanes from Salvia microphylla” (J Nat Prod, 2014)

Legend:
[1] = tested on: PC-3; test: Cytotoxicity against human PC3 cells after 48 hrs by sulforhodamine B method; type: functional, cell-based; conditions: PC-3, 48 h
[2] = tested on: K562; test: Cytotoxicity against human K562 cells after 48 hrs by sulforhodamine B method; type: functional, cell-based; conditions: K562, 48 h
[3] = Cytotoxicity against human HCT15 cells after 48 hrs by sulforhodamine B method; type: functional, cell-based; conditions: HCT-15, 48 h
[4] = tested on: U-251; test: Cytotoxicity against human U251 cells after 48 hrs by sulforhodamine B method; type: functional, cell-based; conditions: U-251, 48 h
[5] = tested on: Mus musculus; test: Antiinflammatory activity in CD1 mouse assessed as reduction of TPA-induced ear edema per ear after 4 hrs; type: functional, organism-based
[6] = Cytotoxicity against human SKLU1 cells after 48 hrs by sulforhodamine B method; type: functional, cell-based; conditions: SK-LU-1, 48 h
[7] = tested on: MCF7; test: Cytotoxicity against human MCF7 cells after 48 hrs by sulforhodamine B method; type: functional, cell-based; conditions: MCF7, 48 h

IC50 [5] | Compound | IC50 [1] | IC50 [2] | IC50 [3] | IC50 [4] | IC50 [6] | IC50 [7]
> 1 µmol | C[C@]12C[C@H](c3ccoc3)OC(=O)[C@H]1CC[C@@]13COC(=O)C1=CC=C[C@@]32O | > 10 µM | > 10 µM | > 10 µM | > 10 µM | > 10 µM | > 10 µM
> 1 µmol | C[C@]12C[C@H](c3ccoc3)OC(=O)[C@H]1CCC1=C(/C=C\CC2=O)C(=O)OC1 | > 10 µM | > 10 µM | > 10 µM | > 10 µM | > 10 µM | > 10 µM
